Results from BigSolDB 2.1.

O=[N+]([O-])c1cc[nH]n1
solubility (mole fraction)
Conditions | 283.15 K | 288.15 K | 293.15 K | 298.15 K | 303.15 K | 308.15 K | 313.15 K | 318.15 K | 323.15 K
in 1,2-dichlorobenzene | 0.0009 | 0.00242 | 0.00425 | 0.00666 | 0.00908 | 0.0113 | 0.0139 | 0.0166 | 0.0197
in 2-ethylhexyl acetate | 0.00998 | 0.0107 | 0.0115 | 0.0122 | 0.0134 | 0.0146 | 0.0166 | – | –
in anisole | 0.00502 | 0.00551 | 0.00623 | 0.00688 | 0.0078 | 0.0092 | 0.0112 | 0.0132 | 0.0156
in benzonitrile | 0.0197 | 0.0223 | 0.0253 | 0.0291 | 0.0342 | 0.0396 | 0.0486 | 0.0631 | 0.0828
in benzyl alcohol | 0.0263 | 0.0296 | 0.0333 | 0.0391 | 0.0452 | 0.0508 | 0.0581 | 0.0672 | 0.0753
in mesitylene | 0.00129 | 0.00162 | 0.002 | 0.00246 | 0.00288 | 0.00335 | 0.00401 | 0.00476 | 0.00578
in n-octanol | 0.0127 | 0.0144 | 0.0164 | 0.0192 | 0.0232 | 0.0272 | 0.0315 | 0.0362 | 0.0429
